In patent US12053545B2, “Transdermal solvent system and methods of use” (Donaghys Limited, priority 2019, dated 2024):

Assay: Stability of dual anthelmintic solvent system, accelerated aging at 40° C. for 12 months
Assay type: physicochemical
Conditions: for Concentration after 6 months / Concentration after 12 months: active in solvent system of Example 4, 40° C. accelerated aging; for Initial concentration: active in solvent system of Example 4, initial

Compound	Concentration after 6 months [µg/mL]	Concentration after 12 months [µg/mL]	Initial concentration [g/L]
c1ccc([C@H]2CN3CCSC3=N2)cc1 [Levamisole]	25450	24100	27.15
Eprinomectin	15800	14600	16.5
